Laboratory results reported in ChEMBL document CHEMBL6115034, “Pseudonatural Flavonols as Novel Copper Ionophores for NAFLD Intervention via Synergistic Copper Delivery and Flavonoid Activity” (J Med Chem, 2025).
Calls of active or inactive are those of the source. The rule behind the calls is not given here.

Key:
[1] = Induction of copper transporting activity in human HeLa cells assessed as fold increase in intracellular copper levels at 2 uM incubated for 4 hrs by ICP-MS analysis; format: functional
[2] = Stability of compound in PBS buffer in presence of cysteine by UV-Vis spectrophotometer analysis; format: physicochemical
[3] = Stability of the compound in cell culture medium containing 10% fetal bovine serum in presence of cysteine by UV-Vis spectrophotometer analysis; format: physicochemical, cell-free; conditions: cattle
[4] = Stability of the compound in cell culture medium containing 10% fetal bovine serum in presence of EDTA by UV-Vis spectrophotometer analysis; format: physicochemical, cell-free; conditions: cattle
[5] = Stability of the compound in cell culture medium containing 10% fetal bovine serum in presence of histidine by UV-Vis spectrophotometer analysis; format: physicochemical, cell-free; conditions: cattle
HeLa = assay: Induction of copper transporting activity in human HeLa cells assessed as increase in intracellular copper levels incubated upto 24 hrs by ICP-MS analysis; format: functional, cell-based; conditions: dose 0.02-20 µM
Hepatocyte = assay: Cytotoxicity against mouse Hepatocyte assessed as cell viability at 0.1 to 5 uM measured at 24 hrs by MTT assay; format: toxicity, cell-based; conditions: hepatocytes, dose 0.1-5 µM
HepG2 [6] = assay: Anti-NAFLD activity in palmitic acid human HepG2 NAFLD cell model assessed as cell viability at 0.1 to 0.5 uM compound administrated as copper complex measured at 24 hrs by MTT assay; format: functional, cell-based; conditions: dose 0.1-0.5 µM
HepG2 [7] = assay: Anti-NAFLD activity in palmitic acid human HepG2 NAFLD cell model assessed as increase in ROS level at 5 uM compound administrated as copper complex measured at 24 hrs by DCFH-DA probe based flow cytometry analysis; format: functional
HepG2 [8] = assay: Anti-NAFLD activity in palmitic acid human HepG2 NAFLD cell model assessed as increase in lipid droplet level at 5 uM compound administrated as copper complex measured at 24 hrs by Oil Red O staining based assay relative to control; format: functional
HepG2 [9] = assay: Anti-NAFLD activity in palmitic acid human HepG2 NAFLD cell model assessed as effect on IL6 expression at 0.5 uM incubated for 24 hrs in presence of CuCl2 by mRNA sequencing analysis; format: functional, cell-based
HepG2 [10] = assay: Anti-NAFLD activity in palmitic acid human HepG2 NAFLD cell model assessed as effect on IFIT3 expression at 0.5 uM incubated for 24 hrs in presence of CuCl2 by mRNA sequencing analysis; format: functional, cell-based
HepG2 [11] = assay: Anti-NAFLD activity in palmitic acid human HepG2 NAFLD cell model assessed as upregulation of MT1X expression at 0.5 uM incubated for 24 hrs in presence of CuCl2 by mRNA sequencing analysis; format: functional, cell-based
HepG2 [12] = assay: Anti-NAFLD activity in palmitic acid human HepG2 NAFLD cell model assessed as upregulation of MT1E expression at 0.5 uM incubated for 24 hrs in presence of CuCl2 by mRNA sequencing analysis; format: functional, cell-based
HepG2 [13] = assay: Anti-NAFLD activity in palmitic acid human HepG2 NAFLD cell model assessed as upregulation of CYP4F3 expression at 0.5 uM incubated for 24 hrs in presence of CuCl2 by mRNA sequencing analysis; format: functional, cell-based
HepG2 [14] = assay: Anti-NAFLD activity in palmitic acid human HepG2 NAFLD cell model assessed as upregulation of CAT expression at 0.5 uM incubated for 24 hrs in presence of CuCl2 by mRNA sequencing analysis; format: functional, cell-based
HepG2 [15] = assay: Anti-NAFLD activity in palmitic acid human HepG2 NAFLD cell model assessed as upregulation of SOD1 expression at 0.5 uM incubated for 24 hrs in presence of CuCl2 by mRNA sequencing analysis; format: functional, cell-based
HepG2 [16] = assay: Anti-NAFLD activity in palmitic acid human HepG2 NAFLD cell model assessed as downregulation of IL6 expression at 0.5 uM incubated for 24 hrs in presence of CuCl2 by mRNA sequencing analysis; format: functional, cell-based
HepG2 [17] = assay: Anti-NAFLD activity in palmitic acid human HepG2 NAFLD cell model assessed as downregulation of STAT1 expression at 0.5 uM incubated for 24 hrs in presence of CuCl2 by mRNA sequencing analysis; format: functional, cell-based
HepG2 [18] = assay: Anti-NAFLD activity in palmitic acid human HepG2 NAFLD cell model assessed as downregulation of STAT2 expression at 0.5 uM incubated for 24 hrs in presence of CuCl2 by mRNA sequencing analysis; format: functional, cell-based
[19] = Toxicity in male C57BL/6 mouse assessed as change in body weight at 125 mg/kg, po compound administrated as copper complex measured for 10 weeks; format: organism-based; conditions: in vivo, 1680 h
Mus musculus [20] = assay: Anti-NAFLD activity in high-fat diet-induced male C57BL/6J mouse model assessed as increase in lipid droplets accumulation in liver at 125 mg/kg, po compound administrated as copper complex measured for 10 weeks by H and E staining based analysis; format: functional, organism-based
Mus musculus [21] = assay: Anti-NAFLD activity in high-fat diet-induced male C57BL/6J mouse model assessed as increase in lipid droplets accumulation in liver at 125 mg/kg, po compound administrated as copper complex measured for 10 weeks by oil red O staining based analysis; format: functional, organism-based
[22] = Toxicity in male C57BL/6 mouse assessed as heart lesion at 125 mg/kg, po compound administrated as copper complex measured for 10 weeks; format: organism-based; conditions: in vivo, 1680 h
Mus musculus [23] = assay: Anti-NAFLD activity in high-fat diet-induced male C57BL/6J mouse model assessed as increase in copper level in liver at 125 mg/kg, po compound administrated as copper complex measured for 10 weeks by ICP-MS analysis; format: functional, organism-based
Mus musculus [24] = assay: Anti-NAFLD activity in high-fat diet-induced male C57BL/6J mouse model assessed as increase in liver weight at 125 mg/kg, po compound administrated as copper complex measured for 10 weeks […]; format: functional, organism-based
Mus musculus [25] = assay: Anti-NAFLD activity in high-fat diet-induced male C57BL/6J mouse model assessed as reduction in serum NEFA level at 125 mg/kg, po compound administrated as copper complex measured for 10 weeks; format: functional; parameters: scale not given: the % may be the effect or the level left
Mus musculus [26] = assay: Anti-NAFLD activity in high-fat diet-induced male C57BL/6J mouse model assessed as decrease in 3-phosphoglycerate at 125 mg/kg, po compound administrated as copper complex measured for 10 weeks by LC-MS/MS analysis; format: functional, organism-based
Mus musculus [27] = assay: Anti-NAFLD activity in high-fat diet-induced male C57BL/6J mouse model assessed as increase in R5P level in liver at 125 mg/kg, po compound administrated as copper complex measured for 10 weeks by LC-MS/MS analysis; format: functional, organism-based
Mus musculus [28] = assay: Anti-NAFLD activity in high-fat diet-induced male C57BL/6J mouse model assessed as increase in S7P level in liver at 125 mg/kg, po compound administrated as copper complex measured for 10 weeks by LC-MS/MS analysis; format: functional, organism-based
Mus musculus [29] = assay: Anti-NAFLD activity in high-fat diet-induced male C57BL/6J mouse model assessed as increase in F6P level in liver at 125 mg/kg, po compound administrated as copper complex measured for 10 weeks by LC-MS/MS analysis; format: functional, organism-based

Question: For O=c1c(O)c(-c2ccc3cccc(O)c3n2)oc2ccccc12, which “fold change (FC)” value [1] is on record?
Answer: ~5

Question: What about the Stability [2] of the same compound?
Answer: Stable

Question: And the Stability [3]?
Answer: Stable

Question: What about the Stability [4] of the same compound?
Answer: Stable

Question: And the Stability [5]?
Answer: Stable

Question: And the Activity (HeLa)?
Answer: Dose-dependent-effect

Question: And the Activity (Hepatocyte)?
Answer: Non-toxic

Question: And the Activity (HepG2 [6])?
Answer: Active

Question: What about the Activity (HepG2 [7]) of the same compound?
Answer: Active

Question: What about the Activity (HepG2 [8]) of the same compound?
Answer: 31%

Question: And the Activity (HepG2 [9])?
Answer: Active

Question: And the Activity (HepG2 [10])?
Answer: Active

Question: What about the Activity (HepG2 [11]) of the same compound?
Answer: Active

Question: What about the Activity (HepG2 [12]) of the same compound?
Answer: Active

Question: What about the Activity (HepG2 [13]) of the same compound?
Answer: Active

Question: What about the Activity (HepG2 [14]) of the same compound?
Answer: Active

Question: What about the Activity (HepG2 [15]) of the same compound?
Answer: Active

Question: And the Activity (HepG2 [16])?
Answer: Active

Question: What about the Activity (HepG2 [17]) of the same compound?
Answer: Active

Question: And the Activity (HepG2 [18])?
Answer: Active

Question: And the Activity [19]?
Answer: Non-toxic

Question: What about the Activity (Mus musculus [20]) of the same compound?
Answer: Active

Question: And the Activity (Mus musculus [21])?
Answer: Active

Question: And the Activity [22]?
Answer: Non-toxic

Question: What about the Activity (Mus musculus [23]) of the same compound?
Answer: Active

Question: What about the Activity (Mus musculus [24]) of the same compound?
Answer: Active

Question: And the Activity (Mus musculus [25])?
Answer: 52%

Question: And the Activity (Mus musculus [26])?
Answer: Active

Question: What about the Activity (Mus musculus [27]) of the same compound?
Answer: Active

Question: And the Activity (Mus musculus [28])?
Answer: Active

Question: And the Activity (Mus musculus [29])?
Answer: Active
